Measured values from US20220354805A1, “Cannabidiol (CBD) as Chemical for Treating Aging-related Degenerative Diseases and Promoting Health Aging” (Hemix Biotech Limited, priority 2021, published 2022).

Key:
[1] = system: Human mesenchymal stem cells (MSCs); assay: Senolytic effect in MSCs upon irradiation induced senescence (relative cell viability); type: cell-based; settings: 24-hour treatment, normalized to non-irradiated control
Method: Human mesenchymal stem cells (MSCs) were counted by using LUNA-II Automated Cell Counter. 1.0×10^5 cells were seeded to each well of 6-well plate and cultured for 24 hours. The cells were divided into two groups: non-irradiated and irradiated group. The irradiated group received gamma irradiation by irradiator. 10 Gy was the dosage of irradiation used. 24 hours after the irradiation, the non-irradiated and irradiated group were treated with different concentration of chemical. After 24-hour treatment, the cells were counted again using LUNA-II Automated Cell Counter. The population doubling level (PDL) which reflects the proliferation rate of cells was calculated by the formula: n=3.32×(logUCY−logI)+X, where n=the PDL number, UCY=the cell yield at that time point, I=the initial cell number, and X=the doubling level of the cells used to initiate the subculture being quantitated.
(§1) The relative cell viability was calculated by normalizing each sample to non-irradiated control sample. […] As CBD selectively killed senescent MSCs while keeping proliferating MSCs unharmed, it was discovered to be a novel senolytic. Referring to FIG. 12b, Western blotting was carried to investigate the mechanism behind CBD's senolytic effect. […] While as proliferating and senescent MSCs responded differently in phosphorylated akt level.

[2] = system: p21, BCL-w, BCL-xL, MCL-1, TRIB3, p-akt in MSCs; assay: Western blotting in irradiated and non-irradiated MSCs; type: cell-based, human; settings: 6-hour 10 μM CBD
Method: FIG. 12a-b illustrates the results of senolytic effect of CBD in mesenchymal stem cells (MSCs) upon irradiation induced senescence.
as §1

[3] = system: LMNA^G609G/G609G MEFs; assay: RNA sequencing of differentially expressed genes in MEFs; type: cell-based, mouse; settings: 10 μM CBD, 4 days
Method: Primary mouse embryonic fibroblasts (MEFs) at passage 3 were seeded and cultured in 10-cm dish and treated with CBD for 4 days. The cells were washed twice with ice-cold phosphate buffered saline (PBS), and 1 mL TRIzol was added. After incubation at room temperature for 5 minutes, the samples were collected into Eppendorf tubes. The supernatants were collected to Eppendorf tubes. 200 μl of chloroform was added to each sample, and the tubes were shaken vigorously by hand for 15 seconds. The samples were incubated at room temperature for 5 minutes and then centrifuged at 4° C. at 12000 rcf for 15 minutes. After centrifugation, the solution was separated into 3 layers. 450 μl of the clear top layer was collected, and 500 μl of isopropanol was added. […] The RNA quantitation was done using Nanodrop and Agilent 2100 Bioanalyzer. The RNA integrity was measured using Agilent 2100 Bioanalyzer. The RNA purity was measured using agarose gel electrophoresis and Agilent 2100 Bioanalyzer. […]
Illumina sequencing system was used for paired-end reads of read lengths PE150. […] The results were validated by quantitative polymerase chain reaction (qPCR). […] The concentration of RNA was measured by nanodrop. […] Then the samples were ready for qPCR. […] The delta-delta-ct value was calculated by the qPCR machine based on the signal of target genes normalized with housekeeping genes.

[4] = system: skin of LMNA^G609G/G609G mice; assay: Histology study of mouse skin (hematoxylin and eosin staining); type: in vivo; settings: CBD treated LMNA^G609G/G609G mice
Method: In the step of study the histology of mouse skin and liver, the mice were sacrificed by cervical dislocation under anesthesia by intraperitoneal (IP) injection of 100 mg/kg ketamine and 16 mg/kg xylazine in sterile water. Major organs, including skin, muscle, intestine, kidney, spleen, liver, lung, heart, aorta, were collected. Half of the tissues were snap-frozen in liquid nitrogen and stored at −80° C. for extraction of proteins and RNA. Another half of the tissues were fixed in 4% paraformaldehyde (PFA) in PBS and shook at 4° C. overnight. For paraffin wax sections, the fixed tissues were incubated in 70% ethanol and shook at 4° C. overnight. Followed by stepwise dehydration of tissues in 90%, 95%, 100%, and 100% ethanol for 1 hour each. Then the tissues were incubated in 50% xylene and 50% ethanol for 30 to 40 minutes and transferred to 100% xylene for 10 to 15 minutes. The tissues were then incubated in wax for 30 minutes and transferred to new wax for 3 times. Then the tissues were placed in the wax inside a vacuum chamber overnight. On the following day, the tissues were embedded into paraffin blocks and sectioned into slides with 6 μm in thickness. After the tissue sections were dried, they were incubated in xylene solution twice each for 5 minutes. […]

## C=C(C)[C@@H]1CCC(C)=C[C@H]1c1c(O)cc(CCCCC)cc1O [CBD, Cannabidiol]
[1]; 10 Gy gamma irradiation
  relative cell viability, irradiated senescent MSCs: significantly decrease the cell viability
[1]
  relative cell viability, non-irradiated control MSCs: significantly increase the cell viability
[2]; irradiated MSCs
  BCL-w level: downregulated
  BCL-xL level: downregulated
  MCL-1 level: downregulated
  p21 level: significantly downregulated
[2]; irradiated senescent MSCs
  TRIB3 expression level (downregulated in senescent MSCs): rescued
[2]; non-irradiated MSCs
  p-akt level: significantly upregulated
[3]
  differentially expressed genes restored to normal levels: 1066 out of 1363
  share of differentially expressed genes restored to normal levels: 78%
[4]
  decrease of hair follicle density: rescued
  loss of skin adipose layer: rescued
